PMC8032624, “Prediction of dose-dependent in vivo acetylcholinesterase inhibition by profenofos in rats and humans using physiologically based kinetic (PBK) modeling-facilitated reverse dosimetry” (Archives of Toxicology, 2021)

Columns and labels:
[1] = system: AChE; test: PBK modeling-facilitated reverse dosimetry and BMD modelling of predicted AChE inhibition in rats; set-up: species or system rat
From the text: In the present study, it was assumed that in vivo dose-dependent AChE inhibition (in blood) depends on the maximum concentration (Cmax) of profenofos reached in the blood. For adequate PBK modeling-facilitated reverse dosimetry, the active (unbound) concentration of a test chemical in the in vitro test system should be linked to the in vivo freely available chemical at the target site. This is important since it is assumed that it is the fraction unbound that causes the effect (AChE inhibition). In the in vitro incubations, a very low concentration of BSA (0.1 mg/mL) is present. Heilmair et al. ([2008]) reported that with such low BSA concentrations, the free concentration of chlorpyrifos oxon is not affected. Furthermore, Rosenfeld and Sultatos ([2006]) found no evidence of binding of paraoxon by BSA even at a higher concentration (1 mg/ml) during incubations. Based on these observations, no significant effect on the free fraction of profenofos in the in vitro AChE inhibition studies is expected, which corroborated with estimations on profenofos binding in the in vitro incubations with help of the online simcyp tool (https://www.certara.com/software/pbpk-modeling-and-simulation/).
By calculating with the PBK model, the external dose required to reach (as unbound Cmax) the concentrations applied in the in vitro test, each in vitro concentration was translated into an in vivo dose. In this way, the concentration–response curves for rat and human AChE inhibition were converted into in vivo dose–response curves for profenofos-induced AChE inhibition in rats and humans, respectively.
To evaluate the performance of the PBK modeling-facilitated reverse dosimetry approach to predict in vivo AChE inhibition, the predicted dose–response curve for rat AChE inhibition upon exposure to profenofos was compared with available in vivo data on AChE inhibition in rats (JMPR [2007]). […]

[2] = in vitro; assay type: in vitro ADME; conditions: conversion of profenofos to BCP; for Km: pH 7.4
Procedure: Incubations of profenofos with rat and human liver microsomes, liver cytosol and plasma were performed to quantify in vitro rates of BCP formation. Conditions were optimized to be linear for metabolite formation with regard to incubation time and microsomal, cytosolic and plasma protein concentration (data not shown). The final incubations were carried out in 100 mM Tris HCl (pH 7.4, 37 °C) containing (final concentrations) 5 mM MgCl2, 2 mM CaCl2 [to stimulate PON1 activity (Carr et al. [2015])], 2 mM NADPH (cofactor to also include CYP-mediated metabolism), enzyme preparation (final concentration 2 mg/ml for human liver microsomes and cytosol and 4.4 mg/ml for human plasma; 0.5 mg/ml for rat microsomes and cytosol and 1.65 mg/ml for rat plasma) and profenofos (at final concentrations ranging from 1 to 100 μM, added from 100 times concentrated stock solutions in DMSO). Control incubations were performed in the absence of microsomes, cytosol or plasma. After 2 min pre-incubation, the reaction was initiated by adding the substrate and mixtures were incubated for 2 min in a 37 °C water bath. The total volume of the incubation mixtures was 200 μl. The reaction was terminated by the addition of 50 μl ice cold ACN and samples were kept on ice. The mixture was centrifuged at 14,000g for 20 min at 4 °C and the supernatant was analyzed using UPLC-UV.
All samples from incubations were analyzed using a Waters Acquity UPLC H class system that consisted of a quaternary solvent manager, a sample manager, and a photodiode array (PDA) detector, equipped with a Water Acquity UPLC® BEH C18 column (1.7 μm, 2.1 × 50 mm) and Waters Xbridge UPLC® BEH C18 pre-column (2.5 μM, 2.1 × 5 mm). The temperature of the column was kept at 40 °C and the auto sampler at 10 °C during the UPLC analysis. The mobile phases used for the analysis consisted of (A) 0.1% TFA in nanopure water and (B) 100% ACN. A gradient elution at a flow rate of 0.6 ml/min was applied for the analysis with the initial condition of 100% A:0% B (v/v), changing in a linear way to 0% A:100% B from 0 to 6 min, which was maintained for 30 s, and then changed back to the initial conditions in 30 s, which were maintained for 1 min. The injection volume for each sample was 3.5 μl.
Under these conditions, the retention times of profenofos and BCP were 4.76 and 3.37 min, respectively. The amounts of profenofos and BCP were quantified by integrating the peak areas at 237 nm using calibration curves that were prepared using commercially available standards.
Kinetic parameters including the apparent maximum velocity (Vmax) and the apparent Michaelis–Menten constant (Km) for BCP formation were obtained by fitting the data for the substrate concentration-dependent rate of conversion (expressed in nmol/min/mg protein) using GraphPad Prism 5, version 5.04 (San Diego, California, USA) to the standard Michaelis–Menten equation: V=Vmax∗S/(Km+S) in which the S represents the concentration of substrate, expressed in μM, V and Vmax the velocity and the maximum velocity of the reaction, respectively, expressed in nmol/min/mg protein, and Km the apparent Michaelis–Menten constant, expressed in μM. The kinetic parameter values for conversion of profenofos to BCP in the liver microsomes, liver cytosol and plasma were determined. To determine the catalytic efficiency, Vmax was divided by the Km.

[3] = system: brain cholinesterase; conditions: based on NOAEL in a dog study, brain cholinesterase inhibition; ref EFSA [2019]; cited from earlier work
[4] = system: rat; conditions: oral administration, ref JMPR [2007]; cited from earlier work
[5] = Control incubations without microsomes, cytosol or plasma (spontaneous hydrolysis); assay type: physicochemical; conditions: 100 mM Tris HCl pH 7.4, 37 °C, 2 min, no enzyme preparation
Procedure: Incubations of profenofos with rat and human liver microsomes, liver cytosol and plasma were performed to quantify in vitro rates of BCP formation. Conditions were optimized to be linear for metabolite formation with regard to incubation time and microsomal, cytosolic and plasma protein concentration (data not shown). […] The mixture was centrifuged at 14,000g for 20 min at 4 °C and the supernatant was analyzed using UPLC-UV.
The conversion of profenofos to BCP was measured in incubations with both rat and human liver microsomes, cytosol and plasma. […] In control incubations, small amounts (max 0.04% of the amount of profenofos added) of BCP were detected, indicating some spontaneous hydrolysis of profenofos in the aqueous environment, which has also been observed in previous studies (Aly and Badawy [1982]). The BCP formation data for microsomes, cytosol and plasma were, therefore, corrected for BCP levels detected in control incubations.

**Q.** What does the source list for `CCCSP(=O)(OCC)Oc1ccc(Br)cc1Cl` (stereo not drawn) [profenofos, O-(4-bromo-2-chlorophenyl) O-ethyl S-propyl phosphorothioate]?
**A.** JMPR NOAEL relative to BMDL10 from predicted rat dose-response data [1]: 200 fold; Predicted rat BMDL10 relative to EFSA ARfD [1]: ~ 100 fold; US EPA BMDL10 relative to BMDL10 from predicted rat dose-response data [1]: 4 times; Vmax ([2]; rat liver cytosol): 0.95 nmol/min/mg cytosolic protein; Vmax ([2]; rat liver microsomes): 8.9 nmol/min/mg microsomal protein; Vmax ([2]; rat plasma): 0.68 nmol/min/mg plasma protein; Km ([2]; rat liver cytosol): 0.34 µM; Km ([2]; rat liver microsomes): 8.1 µM; Km ([2]; rat plasma): 3.6 µM; ARfD [3]: 0.005 mg/kg bw; LD50 [4]: 358 to 1178 mg/kg; BCP detected in control incubations (spontaneous hydrolysis) [5]: ≤ 0.04 % of the amount of profenofos added
